Molecules are shown by their SMILES.

The values that follow come from patent publication US20150104399A1, “PREVENTION OF FIBROBLAST COLLAPSE” (Biocogent, LLC, priority 2012, published 2015).

Assay [1] concerns skin fibroblasts. Put plainly: Viability and attachment of confluent fibroblasts exposed to BSA reacted with ribose, neutral red dye, microscopy. The class given is cell-based, human. As to conditions: BSA reacted with 100 millimolar ribose in presence of 10 millimolar pyridoxamine; 2 mg/mL BSA, 16 hours; FIG. 6. As to the method: A further series of tests was conducted to evaluate the skin care compositions of the present technology, to see whether they could prevent the target protein of BSA from being toxic to skin fibroblasts. This was done by first reacting BSA with the glycating sugar (ribose) in a buffered saline solution. Some of the reaction mixtures also contained pyridoxamine (a drug used here as the positive control known to prevent glycation) or the skin care compositions of the present technology. For this test, incubation of the sterile reaction mixtures was for two days at a temperature of about 45° C. After that, the reaction mixtures were extensively dialyzed against deionized water, removing all of the small molecules (ribose, salts, etc.) from the mixtures, leaving just the BSA. The resulting BSA solutions were then lyophilized (freeze-dried) to remove water, and the residues of BSA were resolubilized in a buffered saline solution. After measuring the protein concentration of each of these solutions, they were each added to a cell culture dish containing confluent fibroblasts to achieve a final BSA concentration of 2 milligrams per milliliter. After exposure of the cells to these solutions at 37° C. for 16 hours, the viability of the cells was determined by adding a dye (neutral red) to the plates and incubating at 37° C. for another hour. […]

Assay [2] concerns skin fibroblasts. Kind of assay: Viability of fibroblasts exposed to BSA reacted with ribose, resazurin dye. As to conditions: positive control for preventing glycation; human dermal fibroblasts exposed to glycated protein. Type of assay: cell-based. As to the method: In some examples discussed herein, comparison was made between the skin care compositions of the present technology and those containing pyridoxamine as a positive control. It was shown that a population of human dermal fibroblasts (HDFs) exposed to glycated proteins is generally expected to collapse. Specifically, glycated protein (such as bovine serum albumin, BSA), when added to normally cultured skin fibroblasts at a concentration in the range of 2 to 6 mg/mL, caused cell death within approximately 18 to 36 hours. […] A series of tests was conducted to evaluate the skin care compositions of the present technology, to see whether they could prevent the target protein of BSA from being toxic to skin fibroblasts. This was done by first reacting BSA with the sugar (ribose) in a buffered saline solution. Some of the reaction mixtures also contained pyridoxamine (a drug used here as the positive control known to prevent glycation) or the skin care compositions of the present technology. […] After exposure of the cells to these solutions at 37° C. for 24 hours, the viability of the cells was determined by adding a dye (resazurin) to the wells and incubating at 37° C. for another hour. […] The color change in the wells was then measured as optical density on a plate-reading spectrophotometer. […]

Turning to `Cc1ncc(CO)c(CN)c1O` [pyridoxamine], the “health of fibroblasts (neutral red uptake, attachment)” value in assay [1] was “have remained healthy”. For the same compound, the “effect on fibroblast collapse” value in assay [2] is “mitigated some of the collapse”.
